In patent US20090163481A1, “PPAR-DELTA LIGANDS AND METHODS OF THEIR USE” (priority 2007, published 2009):
pIC50: −log10 of the molar value.

Key:
PPARγ LBD = biological target: T1, PPARγ LBD (Homo sapiens, UniProt P37231); assay: PPARγ LBD binding and transactivation (ciglitazone competition); assay type: cell-based; conditions: data not shown
T1 construct: expressed in transfected cells; host or cells: U2-OS (inferred from the general testing procedure)
T1 sequence (P37231 238-503 limits assumed): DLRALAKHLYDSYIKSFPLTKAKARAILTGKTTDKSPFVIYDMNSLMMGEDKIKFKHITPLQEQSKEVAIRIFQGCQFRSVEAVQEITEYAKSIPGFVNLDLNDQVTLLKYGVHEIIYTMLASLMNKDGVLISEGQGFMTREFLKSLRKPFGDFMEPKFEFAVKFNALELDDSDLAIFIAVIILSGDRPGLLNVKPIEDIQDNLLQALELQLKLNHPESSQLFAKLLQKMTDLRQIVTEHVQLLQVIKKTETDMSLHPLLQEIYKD
Text: Based on the cellular and molecular data generated, treatment of prostate cancer cells with SR 13904 attenuates a number of pro-tumorigenic activities that are likely to be associated with PPARδ. Furthermore, this nuclear receptor is now believed to be a master regulator of nuclear receptors, including both PPARγ and PPARα, and as such the inhibition of PPARδ activity modulates the other target transcription factors.

PC-3 cells = assay: Alamar Blue proliferation assay, PC-3; assay type: cell-based; conditions: Homo sapiens, 96 h; PC-3, 0-40 μM, 0.5% serum, 4 days; read-out: IC50 for growth inhibition
Procedure: The effect of SR13904 on the proliferation of these cell lines was determined by an Alamar Blue assay. Exponentially growing cells were treated with a range of SR13904 concentrations (0-40 μM; in 0.5% serum) over 4 days and proliferation curves were determined. The IC50 values for growth inhibition by SR13904 for each cell line were determined. […] In addition, colony formation assays with SR13904 were performed with both A549 and Huh7 cells.

A549 cells = assay: Western blotting of cell-cycle regulatory proteins in A549 cells; assay type: cell-based, human; conditions: A549, 20 μM, 24 and 48 h, 0.5% FBS
Procedure: Referring now to FIG. 5C, SR13904 treatment of A549 human NSCLC cell line modulates cell cycle protein expression patterns toward an inhibitory phenotype. Given the flow cytometry results described above, the effect of SR13904 on the expression of some key cell-cycle regulatory proteins involved in G1 and S phases was investigated. A549 cells were grown in phenol-red-free DMEM+0.5% charcoal-treated FBS and exposed to the ligand. […]

## Cc1cc(SCc2sc(-c3cccc4ccccc34)nc2C)ccc1OCC(=O)O [SR 13904]
PPARγ LBD
  interference with ciglitazone binding to PPARγ LBD and transactivation: interfere with ciglitazone binding
PC-3 cells
  pIC50: < 4.52
A549 cells
  levels of cyclin E, p21, and p27: little or no effect
  steady state levels of CDK2, CDK4, cyclin D1, and cyclin A proteins: decreased
